SMILES strings stand for the structures.

The nature of the first data set: in vitro. Particulars: human, hela cells, % viability.
A word on the viability: it is a read-out of living cells in per cent, often relative to untreated cells. Turning to `O=C(CSc1nnc(-c2cccc(Br)c2)o1)Nc1cccc([N+](=O)[O-])c1` [CBK264212], the viability at 28.5 h, 10 µM amounted to 101%.

Take `O=C(O)CCSc1nc2ccccc2n1-c1ccccc1` [CBK264215]: the viability at 28.5 h, 10 µM was 100%.

Take `COc1ccc(C)cc1NC(=O)CCN1CCN(C)CC1` [CBK264216]: the viability at 28.5 h, 10 µM turned out to be 102%.

Regarding `O=C(CSc1ccc(Cl)cc1)Nc1cc(Cl)ccc1C(=O)O` [CBK264217], the viability at 28.5 h, 10 µM was 115%.

On to `COc1ccccc1N1CCN(CCC(=O)Nc2ccc(Br)c(C)c2)CC1` [CBK264218], for which the viability at 28.5 h, 10 µM amounted to 93.6%.

`COc1cc(CN2CCN(Cc3ccccc3F)CC2)cc(OC)c1O` [CBK264219]: the viability at 28.5 h, 10 µM came to 95.9%.

In the case of `CCOC(=O)N1CCN(CCC(=O)Nc2ccc3c(c2)CCC3)CC1` [CBK264220], the viability at 28.5 h, 10 µM was found to be 111%.

With `Cc1cccc(OCC(=O)N2CCN(S(=O)(=O)c3ccc([N+](=O)[O-])cc3)CC2)c1` [CBK264221], the viability at 28.5 h, 10 µM was determined as 89.9%.

As for `O=C(/C=C/c1c[nH]c2ccccc12)c1ccc(C(=O)/C=C/c2c[nH]c3ccccc23)cc1` [CBK264224], the viability at 28.5 h, 10 µM is 106%.

With `CC(C)OC(=O)COc1ccc2c(=O)c(Oc3ccccc3Br)coc2c1` [CBK264226], the viability at 28.5 h, 10 µM was 94%.

On to `O=C(c1cccnc1)N1CCN(S(=O)(=O)c2ccccc2[N+](=O)[O-])CC1` [CBK264227], for which the viability at 28.5 h, 10 µM stood at 97%.

`O=C(O)CCSc1nc(-c2ccccc2)c(-c2ccccc2)[nH]1` [CBK264228]: the viability at 28.5 h, 10 µM was determined as 109%.

For `O=[N+]([O-])c1ccccc1S(=O)(=O)N1CCN(S(=O)(=O)Cc2ccccc2)CC1` [CBK264230], the viability at 28.5 h, 10 µM is 96.9%.

Turning to `Cc1ccc(C)c(NC(=O)C(Cc2ccccc2)N2C(=O)c3cc(Cl)c(Cl)cc3C2=O)c1` (stereo not drawn) [CBK264232], the viability at 28.5 h, 10 µM was determined as 109%.

Take `CC(=O)Nc1ccc(S(=O)(=O)N2CCN(C(=O)COc3ccc(Br)cc3)CC2)cc1` [CBK264234]: the viability at 28.5 h, 10 µM was 94.1%.

`O=C(CCCOc1ccc(Cl)cc1Cl)Nc1c[nH]c(=O)[nH]c1=O` [CBK264235]: the viability at 28.5 h, 10 µM came out at 113%.

On to `Cc1ccc(NC(=O)C(=O)NCCCn2ccnc2)cc1Cl` [CBK264238], for which the viability at 28.5 h, 10 µM stood at 92.2%.

With `CCCS(=O)(=O)N1CCN(C(=O)c2cccnc2)CC1` [CBK264239], the viability at 28.5 h, 10 µM came to 93.8%.

As for `CC(CCc1ccccc1)N1CCN(S(=O)(=O)c2ccc3ccccc3c2)CC1` (stereo not drawn) [CBK264240], the viability at 28.5 h, 10 µM came out at 104%.

In the case of `O=C(CN1CCN(Cc2ccc3c(c2)OCO3)CC1)Nc1ccc(Cl)cc1C(=O)c1ccccc1` [CBK264241], the viability at 28.5 h, 10 µM came to 103%.

For the compound `Cc1ccc(S(=O)(=O)N2CCN(Cc3cc(Br)ccc3O)CC2)cc1` [CBK264242], the viability at 28.5 h, 10 µM was found to be 98.5%.

For the compound `O=C(CN1CCOCC1)Nc1ccc(NC(=O)CN2CCOCC2)c(Cl)c1` [CBK264243], the viability at 28.5 h, 10 µM was found to be 112%.

Turning to `COc1ccc(Nc2nnc(-c3ccc(C(N)=O)cc3)c3ccccc23)cc1` [CBK264246], the viability at 28.5 h, 10 µM stood at 92.7%.

Consider `CC1CCN(Cn2nc(COc3ccccc3)n(-c3ccccc3)c2=S)CC1` [CBK264247], for which the viability at 28.5 h, 10 µM came out at 97.3%.

Regarding `CCn1c2ccccc2c2cc(CN3CCN(S(=O)(=O)c4ccc(NC(C)=O)cc4)CC3)ccc21` [CBK264248], the viability at 28.5 h, 10 µM amounted to 94.1%.

Regarding `Cc1ccc(-c2nc(Nc3ccc(Br)cc3)sc2CC(=O)O)cc1` [CBK264251], the viability at 28.5 h, 10 µM was 101%.

On to `COc1cc(C=O)ccc1OC(=O)c1cn(-c2ccccc2)nc1-c1cccnc1` [CBK264255], for which the viability at 28.5 h, 10 µM was 89.6%.

On to `O=C(O)c1ccc(CNC(=O)c2ccc3c(c2)C(=O)N(CC2CCCO2)C3=O)cc1` (stereo not drawn) [CBK264256], for which the viability at 28.5 h, 10 µM is 98.4%.

Regarding `Cc1ccc(OCC(=O)N2CCN(S(=O)(=O)c3ccccc3[N+](=O)[O-])CC2)cc1` [CBK264260], the viability at 28.5 h, 10 µM is 98.5%.

Turning to `O=C(CCN1CCN(CCO)CC1)Nc1ccc2c(c1)CCC2` [CBK264262C], the viability at 28.5 h, 10 µM worked out at 93.2%.

Take `COc1ccc(C(NC(=O)C2CC=CCC2C(=O)O)c2ccccc2)cc1` (stereo not drawn) [CBK264264]: the viability at 28.5 h, 10 µM stood at 91.6%.

Turning to `CC(=O)Nc1ccc(S(=O)(=O)N2CCN(C(=O)COc3ccc(C)cc3)CC2)cc1` [CBK264268], the viability at 28.5 h, 10 µM stood at 91%.

As to `O=C(COc1ccc2ccccc2c1)N1CCN(S(=O)(=O)c2ccccc2[N+](=O)[O-])CC1` [CBK264271], the viability at 28.5 h, 10 µM worked out at 91.8%.

For `COc1ccccc1N1C(=O)c2ccc(C(=O)Nc3cc([N+](=O)[O-])ccc3O)cc2C1=O` [CBK264272], the viability at 28.5 h, 10 µM amounted to 95.3%.

On to `CN(C)CCOC(=O)c1ccc(S(=O)(=O)N(C)C)o1` [CBK264273C], for which the viability at 28.5 h, 10 µM was determined as 100%.

Consider `COc1cc(CN2CCN(Cc3cccnc3)CC2)cc(OC)c1O` [CBK264274G], for which the viability at 28.5 h, 10 µM came out at 102%.

Regarding `CCOC(=O)C1CCCN(CCC(=O)Nc2cccc(F)c2)C1` (stereo not drawn) [CBK264275C], the viability at 28.5 h, 10 µM was 107%.

On to `O=C(COc1ccc2ccccc2c1)N1CCN(S(=O)(=O)c2ccc([N+](=O)[O-])cc2)CC1` [CBK264277], for which the viability at 28.5 h, 10 µM amounted to 98%.

For the compound `CC(=O)Nc1ccc(S(=O)(=O)N2CCN(C(=O)c3cccnc3)CC2)cc1` [CBK264279], the viability at 28.5 h, 10 µM turned out to be 96.5%.

`O=C(CCN1CCc2ccccc2C1)Nc1cccc(F)c1` [CBK264282]: the viability at 28.5 h, 10 µM was found to be 103%.

Regarding `O=[N+]([O-])c1ccccc1S(=O)(=O)N1CCN(Cc2cccc(Oc3ccccc3)c2)CC1` [CBK264283], the viability at 28.5 h, 10 µM was determined as 98.9%.

As for `CCOC(=O)C1CCCN(CCC(=O)Nc2cc(C)cc(C)c2)C1` (stereo not drawn) [CBK264284], the viability at 28.5 h, 10 µM turned out to be 100%.

For the compound `Cc1ccc(-c2nc(Nc3ccc(F)cc3)sc2CC(=O)O)cc1` [CBK264286], the viability at 28.5 h, 10 µM is 89.4%.

For `CCCS(=O)(=O)N1CCN(S(=O)(=O)c2ccc(NC(C)=O)cc2)CC1` [CBK264288], the viability at 28.5 h, 10 µM stood at 96.6%.

Consider `CCS(=O)(=O)N1CCN(S(=O)(=O)c2ccccc2[N+](=O)[O-])CC1` [CBK264289], for which the viability at 28.5 h, 10 µM is 99%.

Consider `Cc1oc(CSCc2cc(C(=O)O)c(C)o2)cc1C(=O)O` [CBK264291], for which the viability at 28.5 h, 10 µM worked out at 90.7%.

As to `CC(=O)Nc1ccc(S(=O)(=O)N2CCN(c3ccc(C(F)(F)F)cc3[N+](=O)[O-])CC2)cc1` [CBK264293], the viability at 28.5 h, 10 µM came out at 93.9%.

As to `O=C(COc1ccc(-c2ccccc2)cc1)N1CCN(S(=O)(=O)c2ccc([N+](=O)[O-])cc2)CC1` [CBK264297], the viability at 28.5 h, 10 µM stood at 106%.

Take `COc1ccc(-c2nn(CN3CCC(C(N)=O)CC3)c(=S)n2-c2ccccc2)cc1OC` [CBK264299]: the viability at 28.5 h, 10 µM is 91.8%.

`CSc1ccc(CN2CCN(S(=O)(=O)Cc3ccccc3)CC2)cc1` [CBK264301G]: the viability at 28.5 h, 10 µM is 94.2%.

Regarding `COc1ccc(OC)c(CN2CCN(CCCc3ccccc3)CC2)c1` [CBK264304], the viability at 28.5 h, 10 µM was 100%.

For `O=[N+]([O-])c1ccccc1CN1CCN(Cc2cccc(Oc3ccccc3)c2)CC1` [CBK264307], the viability at 28.5 h, 10 µM was 91.3%.

For the compound `O=C(Nc1ccc2nsnc2c1NC(=O)c1ccc2nsnc2c1)c1ccc2nsnc2c1` [CBK264309], the viability at 28.5 h, 10 µM came to 95.9%.

On to `O=[N+]([O-])c1ccc(CN2CCN(C3CCN(Cc4ccccc4)CC3)CC2)cc1` [CBK264310G], for which the viability at 28.5 h, 10 µM was determined as 98.5%.

Regarding `O=[N+]([O-])c1ccccc1S(=O)(=O)N1CCN(S(=O)(=O)c2ccc(Cl)cc2)CC1` [CBK264311], the viability at 28.5 h, 10 µM is 98.6%.

On to `COc1ccccc1N1CCN(CCC(=O)Nc2ccccc2F)CC1` [CBK264313], for which the viability at 28.5 h, 10 µM was found to be 106%.

For `O=C(CCN1CCN(CCO)CC1)Nc1ccc(F)c(F)c1` [CBK264316], the viability at 28.5 h, 10 µM came to 100%.

For `Cc1cc(/C=C2/C(=N)N3N=C(Cc4ccccc4)SC3=NC2=O)c(C)n1-c1ccccc1` [CBK264318], the viability at 28.5 h, 10 µM is 100%.

As to `CCCCC1=NN2C(=N)/C(=C/c3cn(Cc4ccc([N+](=O)[O-])cc4)c4ccccc34)C(=O)N=C2S1` [CBK264320], the viability at 28.5 h, 10 µM worked out at 106%.

In the case of `O=C(NCCN1CCOCC1)C1CCN(Cc2ccccc2O)CC1` [CBK264324], the viability at 28.5 h, 10 µM worked out at 101%.

Consider `CN1CCN(C(=O)C2CCN(CCCc3ccccc3)CC2)CC1` [CBK264326G], for which the viability at 28.5 h, 10 µM was 96%.

`Cc1cccc(N2CCN(C(=O)C3CCN(Cc4cccc(OCc5ccccc5)c4)CC3)CC2)c1C` [CBK264328G]: the viability at 28.5 h, 10 µM worked out at 94.3%.

Regarding `Cc1ccc(S(=O)(=O)N(C)CC(=O)OCC(=O)c2ccccc2)cc1` [CBK264329], the viability at 28.5 h, 10 µM came out at 95.1%.

For the compound `O=C(/C=C/c1ccc(Cl)cc1Cl)NC(=S)Nc1ccccc1F` [CBK264332], the viability at 28.5 h, 10 µM came to 108%.

As to `Cc1cc(C)c2c(O)nc(SCC(=O)c3ccccc3)nc2n1` [CBK264336], the viability at 28.5 h, 10 µM came to 100%.

`O=c1/c(=C/c2ccncc2)sc2n1CN(c1cccc(F)c1)CN=2` [CBK264340]: the viability at 28.5 h, 10 µM was determined as 99.2%.

`Cc1ccc(-c2cc(C(=O)O)c3cc4c(C(=O)O)cc(-c5ccc(C)o5)nc4cc3n2)o1` [CBK264342]: the viability at 28.5 h, 10 µM worked out at 87.4%.

Take `Cc1c(NC(=S)NC(=O)Cc2ccccc2)cccc1-c1nc2ncccc2o1` [CBK264345]: the viability at 28.5 h, 10 µM is 118%.

On to `Cc1ccc(N2CCN(C3=NC(=O)/C(=C\c4ccc(O)c([N+](=O)[O-])c4)S3)CC2)cc1` [CBK264347], for which the viability at 28.5 h, 10 µM worked out at 92.9%.

`COc1ccc(CCNS(=O)(=O)N(C)C)cc1` [CBK264348]: the viability at 28.5 h, 10 µM was found to be 93%.

`COc1ccc(C(=O)CSc2nnc(C)[nH]2)cc1[N+](=O)[O-]` [CBK264350]: the viability at 28.5 h, 10 µM came out at 95.5%.

Consider `CC(=O)Nc1ccc(N(CC(O)Cn2c3ccccc3c3ccccc32)S(C)(=O)=O)cc1` (stereo not drawn) [CBK264352], for which the viability at 28.5 h, 10 µM was 96.7%.

Staying with this data set, now noted: human, hela cells, % viability, bulk resorufin, single well.
As for `O=C1NC(=S)NC(=O)C1=Cc1ccc(OCc2ccccc2F)c(Br)c1` [CBK264257], the viability at 28.5 h, 10 µM amounted to 97.7%.

Consider `COc1cc(/C=C2\C(=O)NC(=O)N(c3ccc(O)cc3)C2=O)cc(I)c1O` [CBK264298], for which the viability at 28.5 h, 10 µM was 114%.

Turning to `COc1ccc(N2C(=O)/C(=C/c3cc(C)n(-c4cccc(C(=O)O)c4C)c3C)C(=O)NC2=S)cc1` [CBK264315], the viability at 28.5 h, 10 µM is 96.6%.

For the origin of these results see article PMC12040169 (PLOS Biology, 2025).
